The values that follow come from patent publication US6251914A, “Cycloalkyl substituted imidazoles” (SmithKline Beecham Corporation, priority 1999, dated 2001).

Structures are written as SMILES. pIC50: −log10 of the molar value. Counter-ions that a name gives are not always drawn.

By pIC50 is commonly meant −log10 of the IC50, conventionally taken in molar units.

T2 sequence (Q16539 whole entry): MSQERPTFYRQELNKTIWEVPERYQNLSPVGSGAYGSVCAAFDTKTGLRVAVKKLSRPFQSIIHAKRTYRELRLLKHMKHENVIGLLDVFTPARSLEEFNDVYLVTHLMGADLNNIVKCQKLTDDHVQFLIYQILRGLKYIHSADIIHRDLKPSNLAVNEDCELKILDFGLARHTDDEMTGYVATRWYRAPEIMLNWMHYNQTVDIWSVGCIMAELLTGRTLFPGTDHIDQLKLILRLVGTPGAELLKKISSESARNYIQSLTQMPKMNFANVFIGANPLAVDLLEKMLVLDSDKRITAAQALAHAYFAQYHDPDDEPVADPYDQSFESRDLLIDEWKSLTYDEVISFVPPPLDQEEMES
T1 sequence (Q16539 whole entry): as above

One assay addresses T1, CSBP2 (Homo sapiens, UniProt Q16539).
T1 construct: made in house; host or cells: yeast
In words: CSBP Kinase Assay (32P transfer to EGFR-derived peptide T669). Format: biochemical. The settings on record: 170 uM ATP, 0.4 mM T669 peptide, 30° C., 10 min; read-out: positive inhibitory activity, IC50 in CSBP kinase assay. As for the experimental part:
This assay measures the CSBP-catalyzed transfer of ^32 P from […] to threonine residue in an epidermal growth factor receptor (EGFR)-derived peptide (T669) with the following sequence: […] (residues 661-681). (See Gallagher et al., "Regulation of Stress Induced Cytokine Production by Pyridinyl Imidazoles: Inhibition of CSPB Kinase", BioOrganic & Medicinal Chemistry, to be published 1996).
Kinase reactions (total volume 30 ul) contain: 25 mM Hepes buffer, pH 7.5; 10 mM MgCl2; 170 uM ATP^(1); 10 uM Na ortho vanadate; 0.4 mM T669 peptide; and 20-80 ng of yeast-expressed purified CSBP2 (see Lee et al., Nature 300, n(72), 739-746 (December 1994)). Compounds (5 ul from [6×] stock^(2)) are pre-incubated with the enzyme and peptide for 20 min. on ice prior to starting the reactions with 32P/MgATP. Reactions are incubated at 30° C. for 10 min. and stopped by adding 10 ul of 0.3 M phosphoric acid. 32P-labeled peptide is separated on phosphocellulose (Wattman, p81) filters by spotting 30 ul reaction mixture. Filters are washed 3 times with 75 mM phosphoric acid followed by 2 washes with H2 O, and counted for 32P.
^(2) Compounds are usually dissolved in DMSO and are diluted in 25 mM HEPES buffer to get final concentration of DMSO of 0.17%.
On to `CCOc1nccc(-c2c(-c3ccc(F)cc3)ncn2[C@H]2CC[C@H](O)CC2)n1` [Example 9, trans-1-(4-Hydroxycyclohexyl)-4-(4-fluorophenyl)-5-[(2-ethoxy)pyrimidine-4-yl]imidazole], for which the pIC50 is more than 4.30.

Turning to `COc1nccc(-c2c(-c3ccc(F)cc3)ncn2C2CCCCC2)n1` [Example 12, 1-Cyclohexyl-4-(4-fluorophenyl)-5-(2-methoxypyrimidin-4-yl)imidazole], the negative logarithm of the IC50 (pIC50) was more than 4.30.

Turning to `COc1nccc(-c2c(-c3ccc(F)cc3)ncn2C2CC2)n1` [Example 14, 1-Cyclopropyl-4-(fluorophenyl)-5-(2-methoxypyrimidin-4-yl)imidazole], the negative-log IC50 (pIC50) is more than 4.30.

For `COc1nccc(-c2c(-c3ccc(F)cc3)ncn2C2CCCC2)n1` [Example 15, 1-Cyclopentyl-4-(4-fluorophenyl)-5-(2-methoxypyrimidin-4-yl)imidazole], the pIC50 was more than 4.30.

Another assay addresses T2, p38 (Homo sapiens, UniProt Q16539).
T2 construct: made in house; host or cells: yeast
Put plainly: CSBP Kinase Assay, minor variation (activated p38, T669 peptide, 96 well plate). Format: biochemical. The note with it: 0.17 mM ATP, 0.67 mM T669 peptide, 24 nM p38, 37° C., 25 min; read-out: positive inhibitory activity, IC50 in kinase assay (minor variation). As to the method:
A minor variation of the above assay is shown below:
Reactions were carried in round bottom 96 well plate (from Corning) in a […]. Reactions contained (in final concentration): 25 mM Hepes, pH7.5; 8 mM MgCl2; 0.17 mM ATP (the Km[ATP] of p38 (see Lee et al., Nature 300, n72 pg 639-746 (December 1994)); 2.5 uCi of [g-32P]ATP; 0.2 mM sodium orthovanadate; 1 mM DTT; 0.1% BSA; 10% glycerol; 0.67 mM T669 peptide; and 24 nM of yeast-expressed, activated and purified p38. Reactions were initiated by the addition of [gamma-32P]Mg/ATP, and incubated for 25 min. at 37° C. Inhibitors (dissolved in DMSO) were incubated with the reaction mixture on ice for 30 minutes prior to adding the 32P-ATP. Final DMSO concentration was 0.16%. Reactions were terminated by adding 10 ul of 0.3 M phosphoric acid, and phosphorylated peptide was isolated from the reactions by capturing it on p81 phosphocellulose filters. Filters were washed with 75 mM phosphoric acids, and incorporated 32P was quantified using beta scintillation counter. Under these conditions, the specific activity of p38 was 400-450 pmol/pmol enzyme, and the activity was linear for up to 2 hr of incubation. The kinase activity values were obtained after subtracting values generated in the absence of substrate which were 10-15% of total values.
Regarding `COc1nccc(-c2c(-c3ccc(F)cc3)ncn2C2CCC2)n1` [Example 13, 1-Cyclobutyl-4-(4-fluorophenyl)-5-(2-methoxypyrimidin-4-yl)imidazole], the pIC50 was more than 4.30.

`COc1nccc(-c2c(-c3ccc(F)cc3)ncn2C2CCCCCC2)n1` [Example 16, 1-Cycloheptyl-4-(4-fluorophenyl)-5-(2-methoxypyrimidin-4-yl)imidazole]: the pIC50 is more than 4.30.

In the case of `COc1nccc(-c2c(-c3ccc(F)cc3)ncn2[C@H]2CC[C@H](OCSC)CC2)n1` [Example 17, trans-4-(4-Fluorophenyl)-5-(2-methoxypyrimidin-4-yl)-1-[4-(methylthiomethoxy)cyclohexyl]imidazole], the negative logarithm of the IC50 (pIC50) was more than 4.30.

As to `COc1nccc(-c2c(-c3ccc(F)cc3)ncn2[C@H]2CC[C@H](OCCN(C)C)CC2)n1` [Example 18, trans-4-(4-Fuorophenyl)-1-[4-(2-(N,N-dimethylamino)ethoxy)cyclohexyl]-5-[(2-methoxy)pyrimidine-4-yl]-imidazole hydrochloride], the pIC50 is more than 4.30.

The subject of the next assay is IL-1 and TNF.
Experiment: not given
The note with it: cited from earlier work.
For the compound `C[S+]([O-])c1ccc(-c2nc(-c3ccncc3)c(-c3ccc(F)cc3)[nH]2)cc1` (stereo not drawn) [SB 203580], the “inhibition of IL-1 and TNF” value is “inhibiting IL-1 and TNF”.

`Fc1ccc(-c2nc3n(c2-c2ccncc2)CCS3)cc1` [SK&F 86002]: the “inhibition of IL-1 and TNF” value was “inhibiting IL-1 and TNF”.

Another assay concerns IL-6, IL-8, GM-CSF and COX-2.
Experiment: not given
The note with it: cited from earlier work.
Turning to `C[S+]([O-])c1ccc(-c2nc(-c3ccncc3)c(-c3ccc(F)cc3)[nH]2)cc1` (stereo not drawn) [SB 203580], the “synthesis of pro-inflammatory proteins including IL-6, IL-8, GM-CSF and COX-2” value is reported as “decrease the synthesis”.

As for `Fc1ccc(-c2nc3n(c2-c2ccncc2)CCS3)cc1` [SK&F 86002], the “synthesis of pro-inflammatory proteins including IL-6, IL-8, GM-CSF and COX-2” value is “decrease the synthesis”.
